Reference: ChEMBL document CHEMBL1147043, “Comparative metabolism of radiolabeled muraglitazar in animals and humans by quantitative and qualitative metabolite profiling” (Drug Metab Dispos, 2007)

Legend:
[1] = Biodistribution in orally dosed human feces assessed as O-dealkyl-O-demethyl muraglitazar level by LC/MS analysis; format: ADME, organism-based; settings: in vivo, po
[2] = (§1) Biodistribution in orally dosed human feces assessed as 8,12-dihydroxy muraglitazar level by LC/MS analysis; format: ADME, organism-based; settings: in vivo, po
[3] = Biodistribution in orally dosed Beagle dog feces assessed as 17-hydroxy muraglitazar level by LC/MS analysis; format: ADME, organism-based, Canis lupus familiaris; settings: in vivo, po
Plasma [4] = assay: Biodistribution in orally dosed Beagle dog plasma assessed as O-demethyl muraglitazar level after 4 hrs by LC/MS analysis; format: ADME, organism-based, Canis lupus familiaris; settings: in vivo, po
[5] = Metabolic stability in cynomolgus monkey hepatocytes assessed as O-Dealkyl muraglitazar level by LC/MS analysis relative to control; format: ADME, cell-based, Macaca fascicularis, Hepatocyte
Plasma [6] = assay: Biodistribution in orally dosed Beagle dog plasma assessed as O-Dealkyl muraglitazar level after 1 hr by LC/MS analysis; format: ADME, organism-based, Canis lupus familiaris; settings: in vivo, po
[7] = Metabolic stability in cynomolgus monkey hepatocytes assessed as 12,17-dihydroxy muraglitazar level by LC/MS analysis relative to control; format: ADME, cell-based, Macaca fascicularis, Hepatocyte
[8] = Drug concentration in human urine assessed as recovery of radioactive dose at 10 mg, po after 240 hrs; format: ADME, organism-based; settings: in vivo
Hepatocyte [9] = assay: Metabolic stability in human hepatocytes assessed as 12,17-dihydroxy muraglitazar level by LC/MS analysis relative to control; format: ADME, cell-based
[10] = Metabolic stability in cynomolgus monkey hepatocytes assessed as 8-hydroxy muraglitazar level by LC/MS analysis relative to control; format: ADME, cell-based, Macaca fascicularis, Hepatocyte
Plasma [11] = assay: Biodistribution in orally dosed human plasma assessed as O-demethyl muraglitazar level after 1 hr by LC/MS analysis; format: ADME, organism-based; settings: in vivo, po
Hepatocyte [12] = assay: Metabolic stability in Sprague-Dawley rat hepatocytes assessed as 9-hydroxy muraglitazar level by LC/MS analysis relative to control; format: ADME, cell-based
[13] = Drug concentration in bile duct-cannulated CD1 mouse feces assessed as recovery of radioactive dose at 40 mg/kg, po after 24 hrs; format: ADME, organism-based; parameters: dose 40 mg/kg, route oral; settings: in vivo
[14] = Biodistribution in orally dosed cynomolgus monkey feces assessed as muraglitazar 12-carboxylic acid level by LC/MS analysis; format: ADME, organism-based, Macaca fascicularis; settings: in vivo, po
Plasma [15] = assay: Biodistribution in orally dosed human plasma assessed as 12-hydroxy-O-demethyl muraglitazar level after 12 hrs by LC/MS analysis; format: ADME, organism-based; settings: in vivo, po
[16] = Metabolic stability in cynomolgus monkey hepatocytes assessed as hydroxyl-O-demethyl muraglitazar glucuronide level by LC/MS analysis relative to control; format: ADME, cell-based, Macaca fascicularis, Hepatocyte
[17] = Biodistribution in orally dosed Beagle dog feces assessed as O-demethyl muraglitazar level by LC/MS analysis; format: ADME, organism-based, Canis lupus familiaris; settings: in vivo, po
Plasma [18] = assay: Biodistribution in orally dosed cynomolgus monkey plasma assessed as 12-dihydroxy muraglitazar level after 12 hrs by LC/MS analysis; format: ADME, organism-based, Macaca fascicularis; settings: in vivo, po
[19] = Biodistribution in orally dosed cynomolgus monkey feces assessed as 9-hydroxy-O-demethyl muraglitazar level by LC/MS analysis; format: ADME, organism-based, Macaca fascicularis; settings: in vivo, po
Plasma [20] = assay: Biodistribution in orally dosed cynomolgus monkey plasma assessed as O-demethyl muraglitazar glucuronide level after 12 hrs by LC/MS analysis; format: ADME, organism-based, Macaca fascicularis; settings: in vivo, po
Canis familiaris = assay: Cmax in Beagle dog at 2 mg/kg, po after 4 hrs; format: ADME, organism-based, Canis lupus familiaris; parameters: dose 2 mg/kg, route oral; settings: in vivo
[21] = Drug concentration in human feces assessed as recovery of radioactive dose at 10 mg, po after 240 hrs; format: ADME, organism-based; settings: in vivo
Plasma [22] = assay: Biodistribution in orally dosed Beagle dog plasma assessed as 12-hydroxy-O-demethyl muraglitazar level after 12 hrs by LC/MS analysis; format: ADME, organism-based, Canis lupus familiaris; settings: in vivo, po
Plasma [23] = assay: Biodistribution in orally dosed Beagle dog plasma assessed as 12-dihydroxy muraglitazar level after 1 hr by LC/MS analysis; format: ADME, organism-based, Canis lupus familiaris; settings: in vivo, po
Plasma [24] = assay: Biodistribution in orally dosed human plasma assessed as 12,17-dihydroxy muraglitazar level after 4 hrs by LC/MS analysis; format: ADME, organism-based; settings: in vivo, po
[25] = Biodistribution in orally dosed cynomolgus monkey feces assessed as 9-hydroxy muraglitazar level by LC/MS analysis; format: ADME, organism-based, Macaca fascicularis; settings: in vivo, po
[26] = Biodistribution in orally dosed cynomolgus monkey feces assessed as 17-hydroxy-O-demethyl muraglitazar level by LC/MS analysis; format: ADME, organism-based, Macaca fascicularis; settings: in vivo, po
[27] = Biodistribution in orally dosed Beagle dog feces assessed as acetylimide derivative of muraglitazar level by LC/MS analysis; format: ADME, organism-based, Canis lupus familiaris; settings: in vivo, po
[28] = as §1; format: ADME, organism-based; settings: in vivo, po; remark: listed apart in the source
[29] = Biodistribution in orally dosed cynomolgus monkey urine assessed as O-demethyl muraglitazar glucuronide level by LC/MS analysis; format: ADME, organism-based, Macaca fascicularis; settings: in vivo, po
[30] = Metabolic stability in CD1 mouse hepatocytes assessed as hydroxyl muraglitazar glucuronide level by LC/MS analysis relative to control; format: ADME, cell-based, Hepatocyte
Plasma [31] = assay: Biodistribution in orally dosed Sprague-Dawley rat plasma assessed as […] muraglitazar level after 12 hrs by LC/MS analysis; format: ADME, organism-based; settings: in vivo, po
[32] = Biodistribution in orally dosed cynomolgus monkey urine assessed as muraglitazar 12-carboxylic acid level by LC/MS analysis; format: ADME, organism-based, Macaca fascicularis; settings: in vivo, po
[33] = Biodistribution in orally dosed cynomolgus monkey urine assessed as 12-hydroxy muraglitazar level by LC/MS analysis; format: ADME, organism-based, Macaca fascicularis; settings: in vivo, po
Plasma [34] = assay: Biodistribution in orally dosed cynomolgus monkey plasma assessed as 12-hydroxy-O-demethyl muraglitazar level after 1 hr by LC/MS analysis; format: ADME, organism-based, Macaca fascicularis; settings: in vivo, po
Rattus norvegicus [35] = assay: Biodistribution in orally dosed Sprague-Dawley rat urine assessed as muraglitazar 12-carboxylic acid level by LC/MS analysis; format: ADME, organism-based; settings: in vivo, po
[36] = Biodistribution in orally dosed Beagle dog feces assessed as 12,17-dihydroxy muraglitazar level by LC/MS analysis; format: ADME, organism-based, Canis lupus familiaris; settings: in vivo, po
Plasma [37] = assay: Biodistribution in orally dosed Beagle dog plasma assessed as O-Dealkyl muraglitazar level after 12 hrs by LC/MS analysis; format: ADME, organism-based, Canis lupus familiaris; settings: in vivo, po
Rattus norvegicus [38] = assay: Biodistribution in orally dosed Sprague-Dawley rat feces assessed as imide derivative of muraglitazar level by LC/MS analysis; format: ADME, organism-based; settings: in vivo, po
[39] = Fecal excretion rate in orally dosed Sprague-Dawley rat within 48 hrs; format: ADME, organism-based; settings: faeces, po, read-out: Activity
Plasma [40] = assay: Biodistribution in orally dosed Sprague-Dawley rat plasma assessed as O-Dealkyl muraglitazar level after 12 hrs by LC/MS analysis; format: ADME, organism-based; settings: in vivo, po
Plasma [41] = assay: Biodistribution in orally dosed cynomolgus monkey plasma assessed as 12-hydroxy-O-demethyl muraglitazar level after 4 hrs by LC/MS analysis; format: ADME, organism-based, Macaca fascicularis; settings: in vivo, po
Plasma [42] = assay: Biodistribution in orally dosed cynomolgus monkey plasma assessed as 12-dihydroxy muraglitazar level after 4 hrs by LC/MS analysis; format: ADME, organism-based, Macaca fascicularis; settings: in vivo, po
[43] = Metabolic stability in CD1 mouse hepatocytes assessed as 8-hydroxy muraglitazar level by LC/MS analysis relative to control; format: ADME, cell-based, Hepatocyte
[44] = Biodistribution in orally dosed Beagle dog feces assessed as 9-hydroxy muraglitazar level by LC/MS analysis; format: ADME, organism-based, Canis lupus familiaris; settings: in vivo, po
Hepatocyte [45] = assay: Metabolic stability in Sprague-Dawley rat hepatocytes assessed as 8-hydroxy muraglitazar level by LC/MS analysis relative to control; format: ADME, cell-based
Plasma [46] = assay: Biodistribution in orally dosed Sprague-Dawley rat plasma assessed as muraglitazar glucuronide level after 12 hrs by LC/MS analysis; format: ADME, organism-based; settings: in vivo, po
Hepatocyte [47] = assay: Metabolic stability in Sprague-Dawley rat hepatocytes assessed as radioactivity recovaries at 25.6 ug/mL after 4 hrs; format: ADME, cell-based
[48] = Biodistribution in orally dosed cynomolgus monkey urine assessed as 17-hydroxy muraglitazar level by LC/MS analysis; format: ADME, organism-based, Macaca fascicularis; settings: in vivo, po
Hepatocyte [49] = assay: Metabolic stability in Sprague-Dawley rat hepatocytes assessed as muraglitazar 12-carboxylic acid level by LC/MS analysis relative to control; format: ADME, cell-based
[50] = Drug concentration in human urine at 10 mg/kg, po after 8 hrs; format: ADME, organism-based; parameters: dose 10 mg/kg, route oral; settings: read-out: Drug uptake
[51] = Fecal excretion rate in orally dosed Beagle dog within 24 hrs; format: ADME, organism-based, Canis lupus familiaris; settings: faeces, po, read-out: Activity
[52] = Biodistribution in orally dosed human urine assessed as 8-hydroxy muraglitazar level by LC/MS analysis; format: ADME, organism-based; settings: in vivo, po

`COc1ccc(OC(=O)N(CC(=O)O)Cc2ccc(OCCc3nc(-c4ccccc4)oc3C)cc2)cc1` [MURAGLITAZAR] showed a Drug uptake [1] of 0.4%, a Drug uptake [2] of 2.83% and a Drug uptake [3] of 1.78%. The Drug uptake (Plasma [4]) was 3%, the Drug uptake [5] was 7.6% and the Drug uptake (Plasma [6]) was 2%. For the same compound, the Drug uptake [7] was less than 0.2%, the Drug uptake [8] was 2.6% and the Drug uptake (Hepatocyte [9]) was 0.2%. The Drug uptake [10] was less than 0.2%, the Drug uptake (Plasma [11]) was 0.2% and the Drug uptake (Hepatocyte [12]) was 0.3%. It also gave a Drug uptake [13] of 12%, a Drug uptake [14] of 1.61% and a Drug uptake (Plasma [15]) of 1%. The Drug uptake [16] was less than 0.2%, the Drug uptake [17] was 24.92% and the Drug uptake (Plasma [18]) was 0.4%. For the same compound, the Drug uptake [19] was 0.32%, the Drug uptake (Plasma [20]) was 0.4% and the Cmax (Canis familiaris) was 1 ugequiv/ml. For the same compound, the Drug uptake [21] was 61.6%, the Drug uptake (Plasma [22]) was 15% and the Drug uptake (Plasma [23]) was 1%. It also gave a Drug uptake (Plasma [24]) of less than 0.05%, a Drug uptake [25] of 0.56% and a Drug uptake [26] of 3.22%. It also gave a Drug uptake [27] of 0.18%, a Drug uptake [28] of 1.36% and a Drug uptake [29] of less than 0.01%. For the same compound, the Drug uptake [30] was 2.7%, the Drug uptake (Plasma [31]) was less than 0.05% and the Drug uptake [32] was 0.04%. For the same compound, the Drug uptake [33] was 0.04%, the Drug uptake (Plasma [34]) was 1.5% and the Drug uptake (Rattus norvegicus [35]) was less than 0.01%. It also gave a Drug uptake [36] of 0.89%, a Drug uptake (Plasma [37]) of 9% and a Drug uptake (Rattus norvegicus [38]) of 2.63%. For the same compound, the dose excreted at 48 h [39] was 95%, the Drug uptake (Plasma [40]) was 0.05% and the Drug uptake (Plasma [41]) was 2.9%. It also gave a Drug uptake (Plasma [42]) of 1.6%, a Drug uptake [43] of 0.3% and a Drug uptake [44] of 0.85%. It also gave a Drug uptake (Hepatocyte [45]) of less than 0.2%, a Drug uptake (Plasma [46]) of 0.05% and a Stability (Hepatocyte [47]) of 96.5%. The Drug uptake [48] was 0.59%, the Drug uptake (Hepatocyte [49]) was less than 0.2% and the dose excreted at 8 h [50] was 1.3%. For the same compound, the dose excreted at 24 h [51] was 85% and the Drug uptake [52] was 0.03%.
